Experimental data taken from the NIST ThermoML archive (doi:10.1016/j.jct.2012.12.007).

Assay: xn = mol fraction of the nth substance listed
Details: 101.3 kPa, Liquid; for speed of sound: Sing-around technique in a fixed-path interferometer; for mass density: Vibrating tube method

CCOCCOCCOCC [diethylene glycol diethyl ether] + CCCCCCCCCCO
Details | mass density [kg/m3] | speed of sound [m/s]
293.15 K, x2 = 0.0632 | 901.86 | 1267.1
293.15 K, x2 = 0.1084 | 897.94 | 1272.6
293.15 K, x2 = 0.2052 | 889.79 | 1284.5
293.15 K, x2 = 0.294 | 882.49 | 1295.5
293.15 K, x2 = 0.393 | 874.57 | 1308.1
293.15 K, x2 = 0.4943 | 866.66 | 1321.4
293.15 K, x2 = 0.543 | 862.92 | 1327.9
293.15 K, x2 = 0.5932 | 859.11 | 1334.7
293.15 K, x2 = 0.6872 | 852.12 | 1348.1
293.15 K, x2 = 0.7863 | 844.92 | 1363
293.15 K, x2 = 0.8872 | 837.76 | 1378.8
293.15 K, x2 = 0.9441 | 833.82 | 1388.1
298.15 K, x2 = 0.0605 | 897.98 | 1247.8
298.15 K, x2 = 0.111 | 893.68 | 1254.1
298.15 K, x2 = 0.1588 | 889.69 | 1260.1
298.15 K, x2 = 0.2062 | 885.79 | 1266.1
298.15 K, x2 = 0.302 | 878.08 | 1278.3
298.15 K, x2 = 0.3947 | 870.77 | 1290.4
298.15 K, x2 = 0.504 | 862.39 | 1305
298.15 K, x2 = 0.592 | 855.8 | 1317.3
298.15 K, x2 = 0.6553 | 851.16 | 1326.4
298.15 K, x2 = 0.7443 | 844.72 | 1339.5
298.15 K, x2 = 0.7923 | 841.32 | 1347
298.15 K, x2 = 0.8362 | 838.23 | 1353.8
298.15 K, x2 = 0.8836 | 834.93 | 1361.4
298.15 K, x2 = 0.94 | 831.05 | 1370.4
303.15 K, x2 = 0.0605 | 893 | 1229.6
303.15 K, x2 = 0.1016 | 889.54 | 1234.8
303.15 K, x2 = 0.154 | 885.23 | 1241.6
303.15 K, x2 = 0.2064 | 880.99 | 1248.3
303.15 K, x2 = 0.2953 | 873.94 | 1260
303.15 K, x2 = 0.3846 | 867.02 | 1271.7
303.15 K, x2 = 0.5006 | 858.29 | 1287.6
303.15 K, x2 = 0.5369 | 855.6 | 1292.7
303.15 K, x2 = 0.6486 | 847.46 | 1308.7
303.15 K, x2 = 0.7409 | 840.9 | 1322.6
303.15 K, x2 = 0.7915 | 837.36 | 1330.4
303.15 K, x2 = 0.8318 | 834.56 | 1336.7
303.15 K, x2 = 0.8856 | 830.89 | 1345.4
303.15 K, x2 = 0.9364 | 827.44 | 1353.5

CCOCCOCCOCC [diethylene glycol diethyl ether] + CCCCO
Details | mass density [kg/m3] | speed of sound [m/s]
293.15 K, x2 = 0.1284 | 901.3 | 1262.2
293.15 K, x2 = 0.2205 | 896.11 | 1263.3
293.15 K, x2 = 0.319 | 889.85 | 1264.1
293.15 K, x2 = 0.3623 | 886.86 | 1264.3
293.15 K, x2 = 0.4157 | 882.92 | 1264.5
293.15 K, x2 = 0.4529 | 879.96 | 1264.4
293.15 K, x2 = 0.4963 | 876.35 | 1264.4
293.15 K, x2 = 0.5481 | 871.71 | 1264.3
293.15 K, x2 = 0.6523 | 861.3 | 1263.6
293.15 K, x2 = 0.7018 | 855.73 | 1263.3
293.15 K, x2 = 0.7934 | 844.15 | 1262.1
293.15 K, x2 = 0.8942 | 829.14 | 1260.2
293.15 K, x2 = 0.9397 | 821.36 | 1258.9
298.15 K, x2 = 0.1245 | 896.77 | 1242.5
298.15 K, x2 = 0.2149 | 891.76 | 1243.8
298.15 K, x2 = 0.3175 | 885.38 | 1244.9
298.15 K, x2 = 0.4078 | 879 | 1245.5
298.15 K, x2 = 0.4543 | 875.4 | 1245.6
298.15 K, x2 = 0.5047 | 871.25 | 1245.7
298.15 K, x2 = 0.5543 | 866.84 | 1245.7
298.15 K, x2 = 0.6137 | 861.13 | 1245.5
298.15 K, x2 = 0.6973 | 852.18 | 1245.3
298.15 K, x2 = 0.7951 | 840.07 | 1244.5
298.15 K, x2 = 0.8466 | 832.8 | 1243.9
298.15 K, x2 = 0.9449 | 816.86 | 1241.7
303.15 K, x2 = 0.0738 | 894.47 | 1223.5
303.15 K, x2 = 0.1419 | 890.96 | 1224.8
303.15 K, x2 = 0.218 | 886.73 | 1225.9
303.15 K, x2 = 0.302 | 881.57 | 1227
303.15 K, x2 = 0.3764 | 876.51 | 1227.7
303.15 K, x2 = 0.5002 | 866.9 | 1228.3
303.15 K, x2 = 0.5541 | 862.16 | 1228.4
303.15 K, x2 = 0.6056 | 857.29 | 1228.5
303.15 K, x2 = 0.6997 | 847.32 | 1228.4
303.15 K, x2 = 0.7961 | 835.44 | 1227.9
303.15 K, x2 = 0.8493 | 827.96 | 1227.4
303.15 K, x2 = 0.8896 | 821.8 | 1226.8
303.15 K, x2 = 0.9431 | 812.86 | 1225.8

CCOCCOCCOCC [diethylene glycol diethyl ether] + CO
Details | mass density [kg/m3] | speed of sound [m/s]
293.15 K, x2 = 0.1141 | 904.9 | 1259.4
293.15 K, x2 = 0.1553 | 904.05 | 1259.4
293.15 K, x2 = 0.1987 | 903.07 | 1259.2
293.15 K, x2 = 0.249 | 901.79 | 1258.6
293.15 K, x2 = 0.2972 | 900.38 | 1257.7
293.15 K, x2 = 0.3651 | 898.01 | 1255.9
293.15 K, x2 = 0.3841 | 897.27 | 1255.2
293.15 K, x2 = 0.4206 | 895.72 | 1253.7
293.15 K, x2 = 0.4696 | 893.32 | 1251.3
293.15 K, x2 = 0.5133 | 890.89 | 1248.6
293.15 K, x2 = 0.5624 | 887.61 | 1244.7
293.15 K, x2 = 0.6126 | 883.69 | 1240
293.15 K, x2 = 0.6545 | 879.81 | 1235.1
293.15 K, x2 = 0.698 | 875.07 | 1229
293.15 K, x2 = 0.7575 | 867.11 | 1218.6
293.15 K, x2 = 0.8037 | 859.25 | 1208.1
293.15 K, x2 = 0.8469 | 850.24 | 1196
293.15 K, x2 = 0.9023 | 835.03 | 1175.4
293.15 K, x2 = 0.9467 | 818.74 | 1153.6
298.15 K, x2 = 0.1296 | 900 | 1240
298.15 K, x2 = 0.1589 | 899.4 | 1239.9
298.15 K, x2 = 0.1917 | 898.67 | 1239.7
298.15 K, x2 = 0.2627 | 896.83 | 1239
298.15 K, x2 = 0.2904 | 896.02 | 1238.5
298.15 K, x2 = 0.3505 | 894.01 | 1237.1
298.15 K, x2 = 0.3925 | 892.41 | 1235.8
298.15 K, x2 = 0.4241 | 891.01 | 1234.4
298.15 K, x2 = 0.4639 | 889.09 | 1232.6
298.15 K, x2 = 0.5181 | 886.01 | 1229.3
298.15 K, x2 = 0.5637 | 882.97 | 1225.8
298.15 K, x2 = 0.6132 | 879.12 | 1221.2
298.15 K, x2 = 0.6207 | 878.44 | 1220.4
298.15 K, x2 = 0.6959 | 870.83 | 1210.9
298.15 K, x2 = 0.7434 | 864.68 | 1203
298.15 K, x2 = 0.8007 | 855.37 | 1190.8
298.15 K, x2 = 0.8481 | 845.46 | 1177.7
298.15 K, x2 = 0.9005 | 831.08 | 1158.6
298.15 K, x2 = 0.9476 | 813.97 | 1135.9
303.15 K, x2 = 0.1058 | 895.27 | 1221.5
303.15 K, x2 = 0.1571 | 894.27 | 1221.5
303.15 K, x2 = 0.1991 | 893.31 | 1221.4
303.15 K, x2 = 0.2309 | 892.58 | 1220.9
303.15 K, x2 = 0.2886 | 890.89 | 1220.4
303.15 K, x2 = 0.3249 | 889.71 | 1219.5
303.15 K, x2 = 0.3748 | 887.88 | 1218.2
303.15 K, x2 = 0.4216 | 885.91 | 1216.5
303.15 K, x2 = 0.473 | 883.4 | 1214.1
303.15 K, x2 = 0.5164 | 880.9 | 1211.5
303.15 K, x2 = 0.5681 | 877.47 | 1207.7
303.15 K, x2 = 0.6092 | 874.33 | 1204.1
303.15 K, x2 = 0.6548 | 870.07 | 1199
303.15 K, x2 = 0.6984 | 865.35 | 1193.3
303.15 K, x2 = 0.7448 | 859.28 | 1185.6
303.15 K, x2 = 0.8012 | 849.99 | 1173.9
303.15 K, x2 = 0.8484 | 840.19 | 1161.1
303.15 K, x2 = 0.9007 | 825.94 | 1142.6
303.15 K, x2 = 0.9489 | 808.25 | 1119.6
